The values below are quoted from earlier work in US7914812B2, “Wound care dressing and method using same” (priority 2004, dated 2011).

For the first series the following is noted: 25° C.
With `OC[C@@H](O)[C@@H](O)CO` [Erythritol], the “Solubility ww % (25° C.)” value is 36 ww %. In the case of `OC[C@@H](O)[C@@H](O[C@@H]1O[C@H](CO)[C@H](O)[C@H](O)[C@H]1O)[C@H](O)[C@@H](O)CO` [Lactitol], the “Solubility ww % (25° C.)” value is given as 58 ww %. On to `OC[C@@H](O)[C@@H](O[C@H]1O[C@H](CO)[C@@H](O)[C@H](O)[C@H]1O)[C@H](O)[C@@H](O)CO` [Maltitol], for which the “Solubility ww % (25° C.)” value is listed as 60 ww %. As for `OC[C@@H](O)[C@@H](O)[C@H](O)[C@H](O)CO` [Mannitol], the “Solubility ww % (25° C.)” value is recorded as 18 ww %.

Turning to `OC[C@@H](O)[C@@H](O)[C@H](O)[C@@H](O)CO` [Sorbitol], the “Solubility ww % (25° C.)” value was 72 ww %. On to `OC[C@@H](O)[C@H](O)[C@@H](O)CO` [Xylitol], for which the “Solubility ww % (25° C.)” value is listed as 66 ww %. Consider Isomalt, for which the “Solubility ww % (25° C.)” value was 28 ww %.

The same series, now with this note: at about 37° C., i.e. body temperature; water.
Take `OC[C@@H](O)[C@@H](O)[C@H](O)[C@H](O)CO` [Mannitol]: the solubility entry is recorded as “about 23 grams per 100 grams of water”.

On to `OC[C@H]1O[C@@](CO)(O[C@H]2O[C@H](CO)[C@@H](O)[C@H](O)[C@H]2O)[C@@H](O)[C@@H]1O` [sucrose], for which the solubility entry is “about 78 grams per 100 grams of water”.
